For assay [1], the system named is AR-amplified prostate cancer cells. The settings on record: cited from earlier work.
The next assay concerns AR protein. Briefly: AR degradation in MDA-MB-453 cells (Western blotting). The settings on record: 24 hr treatment. It counts as cell-based. On the procedure:
The appropriate cell line, e.g., prostate cancer LNCaP, Vcap, or 22RV1 cell line, was treated with Compounds of the Disclosure as indicated. The treated cells were lysed with RIPA buffer. The AR level in the cell lysates was examined by western blotting and a specific AR antibody (ab194196, Abcam, Cambridge, Mass. 02139) with concentration of 1:20,000. GAPDH was used as a loading control.
Bands were quantified with ImageJ software. The relative numbers of each band obtained from normalization with its corresponding GAPDH level were compared with Prism 8 software. The DC50 values were produced from Prism 8, and the DC90 values were calculated with an equation=Bottom+(Top−Bottom)/(1+10^((Log EC50−X)*HillSlope) based on DC50 and Hillslope values.

We go through two compounds from patent publication US20220380368A1, “SPIROCYCLIC ANDROGEN RECEPTOR PROTEIN DEGRADERS” (THE REGENTS OF THE UNIVERSITY OF MICHIGAN, priority 2019, published 2022).

As for `Cc1ncsc1-c1ccc(CNC(=O)C2C[C@@H](O)CN2C(=O)[C@@H](NC(=O)COCCCCOc2ccc(-c3ccc(N4C(=S)N(c5ccc(C#N)c(C(F)(F)F)c5)C(=O)C4(C)C)cc3)cc2)C(C)(C)C)cc1` (stereo partly drawn) [ARCC-4, (4R)-1-((S)-2-(2-(4-((4′-(3-(4-cyano-3-(trifluoromethyl)phenyl)-5,5-dimethyl-4-oxo-2-thioxoimidazolidin-1-yl)-[1,1′-biphenyl]-4-yl)oxy)butoxy)acetamido)-3,3-dimethylbutanoyl)-4-hydroxy-N-(4-(4-methylthiazol-5-yl)benzyl)pyrrolidine-2-carboxamide], the “inducing apoptosis and inhibiting proliferation, compared with enzalutamide” value in assay [1] is “more potent and effective than enzalutamide”.

In the case of `N#Cc1ccc(N2CC3(CN(C(=O)c4ccc(C5CCN(CC6CCN(c7ccc8c(c7)C(=O)N(C7CCC(=O)NC7=O)C8=O)CC6)CC5)cc4)C3)C2)cc1Cl` (stereo not drawn) [compound 481], the “degradation at 10 nM” value with AR protein (10 nM) is recorded as “B (>50% degradation but <90% (24 hr treatment))”. In the assay with AR protein (100 nM), the “degradation at 100 nM” value is recorded as “A (>90% degradation (24 hr treatment))”.
